Assay results from publication PMC11769294, “(E)-1-(3-(3-Hydroxy-4-Methoxyphenyl)-1-(3,4,5-Trimethoxyphenyl)allyl)-1H-1,2,4-Triazole and Related Compounds: Their Synthesis and Biological Evaluation as Novel Antimitotic Agents Targeting Breast Cancer” (Pharmaceuticals, 2025).

Tests used:
[1] = Cytotoxicity in MCF-10A cells (alamarBlue); assay type: cell-based, human; details: human, MCF-10A non-tumorigenic mammary epithelial cells
Experimental: Figure 9 Effect of compounds 22a (A) and 22b (B) on the cell viability of non-tumorigenic MCF-10A human mammary epithelial cells at 24, 48, and 72 h. Cells were treated with the compounds 22a and 22b at concentrations of 10 μM, 1 μM, 0.5 μM, and 0.4 μM for 24, 48, or 72 h. […] Cell viability was expressed as a percentage of vehicle control (ethanol 1% (v/v)) and was determined by an alamarBlue assay (average ± SEM of three independent experiments). Two-way ANOVA (Bonferroni post-test) was used to test for statistical significance (*, p < 0.05; **, p < 0.01; ***, p < 0.001).
HL-60 cells were suspension cells and the seeding density for the viability assay was 25,000 cells/mL. MCF-7 cells (adherent) were cultured in Minimum Essential Media (MEM) with GlutaMAX™-I, supplemented with 1% (v/v) non-essential amino acids, 10% (v/v) fetal bovine serum (FBS), purchased from BD Biosciences (Edmund Halley Road, Oxford, UK), and 1% (v/v) penicillin/streptomycin 5000 U/mL. The MCF-7 cells used in the screening of the compounds during these experiments were mycoplasma-free. The seeding density of MCF-7 in the viability assay was 25,000 cells/mL and 50,000 cells/mL in the FACS assay. Normal breast cells (MCF-10A) (adherent) were cultured in Dulbecco’s Modified Eagle Medium: Nutrient Mixture F-12 (DMEM/F12; Gibco) supplemented with 5% horse serum (Invitrogen, Waltham, MA, USA), 20 ng/mL epidermal growth factor (Merck Millipore, Burlington, MA, USA), 0.5 μg/mL hydrocortisone (Sigma, Kanagawa, Japan), 100 ng/mL cholera toxin (Sigma), 10 μg/mL insulin (Sigma), and penicillin/streptomycin 5000 U/mL (1%) (Gibco, Waltham, MA, USA). […] MDA-MB-231 cells were cultured in Dulbecco’s Modified Eagle Medium, which was supplemented with 10% (v/v) fetal bovine serum (FBS) and 1% (v/v) penicillin/streptomycin 5000 U/mL. When not in use, all cells were kept in liquid nitrogen and frozen in a freezing media made of 90% FBS and 10% DMSO. All cells were grown in an atmosphere of 5% CO2/95% air in T75 culture flasks. The media was changed every 2–3 days and media was always prewarmed to 37 °C. All were sub-cultured every 3–4 days by trypsinization using TrypLE™ Express enzyme when confluence was reached to allow growth, prevent excessive cell death, and minimize the risk of infections derived by over-confluence. For the cell viability assay, the number of cells per milliliter was 25,000 cells/mL while the FACS assay utilized 50,000 cells/mL. Cells were maintained at 37 °C in 5% CO2 in a humidified incubator.
The biochemical assays were performed in triplicate and on at least three independent occasions to facilitate the determination of mean values. For the viability assay, cells were grown until 80% confluent. Adherent cells such as MCF-7, MDA-MB-231, and MCF-10A were trypsinized to detach them from the flask, counted as previously described, and seeded in 96 well plates with a seeding density of 25,000 cells /mL (200 µL of suspension in each well so that the final number of cells per well was 5000) and 1 × 10^4 cells/well seeding density for suspension HL-60 cells. Adherent cells were incubated for 24 h after being seeded in the 96 well plate and treated on the following day, while suspension cells were treated on the same day of the seeding. In both cases, the incubation time after the treatment with the drug was 72 h. After 68 h incubation, the AlamarBlue was added (20 µL in each well) and the incubation time was completed. After 72 h, the change in color was measured by spectrofluorimetry at an excitation wavelength of 544 nm and emission wavelength of 590 nm. AlamarBlue is a cell viability indicator containing a compound called resazurin. AlamarBlue is water soluble, stable in culture media, non-toxic, and is permeable through the cell membrane. When resazurin (blue) enters the live cells, it is reduced to the fluorescent molecule resorufin (pink).

[2] = target: CYP19 (aromatase) (Homo sapiens, UniProt P11511); experiment: Cytochrome P450 assay (DBF fluorescence); details: read-out: inhibition of CYP19
CYP19 (aromatase), sequence (P11511 whole entry): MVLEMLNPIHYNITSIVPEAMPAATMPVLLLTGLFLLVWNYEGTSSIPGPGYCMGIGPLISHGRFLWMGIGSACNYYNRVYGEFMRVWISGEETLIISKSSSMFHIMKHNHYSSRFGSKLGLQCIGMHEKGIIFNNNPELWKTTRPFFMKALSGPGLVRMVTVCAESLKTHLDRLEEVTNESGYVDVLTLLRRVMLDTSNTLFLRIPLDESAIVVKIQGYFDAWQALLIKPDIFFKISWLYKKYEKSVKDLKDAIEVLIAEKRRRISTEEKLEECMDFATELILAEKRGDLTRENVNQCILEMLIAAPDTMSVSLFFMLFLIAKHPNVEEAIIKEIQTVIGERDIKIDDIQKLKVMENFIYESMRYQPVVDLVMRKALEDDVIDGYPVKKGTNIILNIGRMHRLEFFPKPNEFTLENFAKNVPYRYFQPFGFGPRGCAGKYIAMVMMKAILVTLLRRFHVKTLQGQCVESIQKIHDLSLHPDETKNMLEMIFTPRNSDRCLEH

[3] = tested on: MDA-MB-231 breast cancer cells; experiment: alamarBlue cell viability assay; assay type: cell-based; details: Homo sapiens
Experimental: HL-60 cells were suspension cells and the seeding density for the viability assay was 25,000 cells/mL. MCF-7 cells (adherent) were cultured in Minimum Essential Media (MEM) with GlutaMAX™-I, supplemented with 1% (v/v) non-essential amino acids, 10% (v/v) fetal bovine serum (FBS), purchased from BD Biosciences (Edmund Halley Road, Oxford, UK), and 1% (v/v) penicillin/streptomycin 5000 U/mL. The MCF-7 cells used in the screening of the compounds during these experiments were mycoplasma-free. The seeding density of MCF-7 in the viability assay was 25,000 cells/mL and 50,000 cells/mL in the FACS assay. […]
The biochemical assays were performed in triplicate and on at least three independent occasions to facilitate the determination of mean values. […] Adherent cells such as MCF-7, MDA-MB-231, and MCF-10A were trypsinized to detach them from the flask, counted as previously described, and seeded in 96 well plates with a seeding density of 25,000 cells /mL (200 µL of suspension in each well so that the final number of cells per well was 5000) and 1 × 10^4 cells/well seeding density for suspension HL-60 cells. […] After 72 h, the change in color was measured by spectrofluorimetry at an excitation wavelength of 544 nm and emission wavelength of 590 nm. […]

[4] = tested on: purified bovine brain tubulin; experiment: Tubulin polymerization assay; assay type: biochemical; details: after 60 min
Experimental: The triazole 22b was selected for evaluation in the tubulin polymerization assay. Following the protocol previously described, the polymerization of purified bovine tubulin was monitored using a tubulin polymerization assay kit, BK006, (Cytoskeleton Inc., Denver, CO, USA). The assay was carried out using the purified bovine brain tubulin. Tubulin polymerization was determined spectrophotometrically by monitoring the change in turbidity since light is scattered proportionally to the concentration of polymerized microtubules in the assay. Lyophilized tubulin [128] (Cytoskeleton, Denver, CO, USA) (>99%, 3 mg/mL) was re-suspended in ice-cold G-PEM buffer (80 mM PIPES pH 6.9, […], 1 mM EGTA, 1 mM GTP, 10.2% (v/v) glycerol) and added to wells on a half volume 96-well plate containing the designated concentration of drug (10 or 30 μM). […] Samples were mixed well and the tubulin assembly was monitored at 340 nm at 30 s intervals for 60 min at 37 °C in a Spectramax 340PC spectrophotometer (Molecular Devices, San Jose, CA, USA).
Figure 13 Inhibition of tubulin polymerization in vitro by compound 22b. […] The progress of the tubulin polymerization reaction at 37 °C was monitored at 340 nm in a Spectramax 340PC spectrophotometer at 30 s intervals for 60 min. Fold inhibition of tubulin polymerization can be calculated from the Vmax value for each reaction. […]

[5] = 1 μM, 24 h, read-out: cell viability

COc1ccc(/C=C/C(c2cc(OC)c(OC)c(OC)c2)n2cncn2)cc1 (centres unmarked) [Compound 22a, (E)-1-(3-(4-Methoxyphenyl)-1-(3,4,5-trimethoxyphenyl)allyl)-1H-1,2,4-triazole] showed a viability at 72 h, 0.4 µM ([1]; 72 h) greater than 80%, a viability at 24 h, 1 µM [1, 5] of 100% and a viability at 48 h, 1 µM ([1]; 1 μM, read-out: viable cells) greater than 80%. For the same compound, the viability at 24 h, 10 µM ([1]; 10 μM, 24 h, read-out: viable cells) was 78% and the viability at 48 h, 10 µM ([1]; 10 μM, read-out: viable cells) was roughly 57%.
For COc1ccc(/C=C/C(c2cc(OC)c(OC)c(OC)c2)n2cncn2)cc1O (centres unmarked) [Compound 22b, (E)-5-(3-(1H-1,2,4-Triazol-1-yl)-3-(3,4,5-trimethoxyphenyl)prop-1-en-1-yl)-2-methoxyphenol], the inhibition at 50 µM [2] was 93%, the viability at 72 h, 0.4 µM ([1]; 72 h) was greater than 80% and the viability at 72 h, 0.5 µM ([1]; 0.5 μM, 72 h, read-out: cell viability) was 80%. For the same compound, the viability at 24 h, 1 µM [1, 5] was 100%, the viability at 48 h, 1 µM ([1]; 1 μM, read-out: viable cells) was greater than 80% and the viability at 72 h, 1 µM ([1]; 1 μM, 72 h, read-out: cell viability) was 55%. The viability at 48 h, 10 µM ([1]; 10 μM, read-out: viable cells) was roughly 30%, the viability at 72 h, 10 µM ([1]; 10 μM, 72 h, read-out: cell viability) was 24% and the IC50 [3] was 770 nM. For the same compound, the IC50 ([3]; 72 h) was 765 ± 30 nM, the “reduction in the polymer mass vs vehicle” value ([4]; 10 μM) was 1.5 fold and the “reduction in the polymer mass vs vehicle” value ([4]; 30 μM) was 5 fold.
